This note sets out measurements from US11399542B2, “Pesticidally active heterocyclic derivatives with sulfur containing substituents” (SYNGENTA PARTICIPATIONS AG, priority 2017, dated 2022).

Data set [1] has as its system Spodoptera littoralis (Egyptian Cotton Leaf Worm). In words: Example B1: Activity against Spodoptera littoralis, sprayed cotton leaf discs. It is filed as in vivo. The settings on record: foliar, 72 h, application rate 200 ppm, L1 larvae on cotton leaf discs, 3 days after infestation, read-out: control (at least one of mortality, anti-feedant effect, growth inhibition). The method, then:
Cotton leaf discs were placed onto agar in 24-well microtiter plates and sprayed with aqueous test solutions prepared from 10′000 ppm DMSO stock solutions. After drying the leaf discs were infested with five L1 larvae. The samples were assessed for mortality, anti-feeding effect, and growth inhibition in comparison to untreated samples 3 days after infestation. Control of Spodoptera littoralis by a test sample is given when at least one of the categories mortality, anti-feedant effect, and growth inhibition is higher than the untreated sample.

Data set [2] concerns Bemisia tabaci (Cotton White Fly). In words: Example B7: Activity against Bemisia tabaci, sprayed cotton leaf discs. It is filed as in vivo. The note with it: foliar, 144 h, application rate 200 ppm, adult white flies on cotton leaf discs, 6 days after incubation. The method, then: Cotton leaf discs were placed on agar in 24-well microtiter plates and sprayed with aqueous test solutions prepared from 10′000 ppm DMSO stock solutions. After drying the leaf discs were infested with adult white flies. The samples were checked for mortality 6 days after incubation.

Data set [3] relates to Diabrotica balteata (Corn Root Worm). In words: Example B4: Activity against Diabrotica balteata, sprayed maize sprouts. It is filed as in vivo. The settings on record: 96 h, application rate 200 ppm, L2 larvae on maize sprouts, 4 days after infestation, read-out: effect in at least one of the two categories (mortality or growth inhibition). The method, then: Maize sprouts placed onto an agar layer in 24-well microtiter plates were treated with aqueous test solutions prepared from 10′000 ppm DMSO stock solutions by spraying. After drying, the plates were infested with L2 larvae (6 to 10 per well). The samples were assessed for mortality and growth inhibition in comparison to untreated samples 4 days after infestation.

The test system of data set [4] is Spodoptera littoralis (Egyptian Cotton Leaf Worm). The data set is described as follows: Example B2: Activity against Spodoptera littoralis, systemic via lettuce roots in agar. The note with it: 144 h, test rate 12.5 ppm, lettuce root uptake, 6 days after infestation, read-out: effect in at least one of the three categories (mortality, anti-feeding, or growth inhibition). It counts as in vivo. The text has this:
Test compounds were applied by pipette from 10′000 ppm DMSO stock solutions into 24-well plates and mixed with agar. Lettuce seeds were placed onto the agar and the multi well plate was closed by another plate which contained also agar. After 7 days the compound was absorbed by the roots and the lettuce grew into the lid plate. The lettuce leaves were then cut off into the lid plate. Spodoptera eggs were pipetted through a plastic stencil onto a humid gel blotting paper and the lid plate was closed with it. The samples were assessed for mortality, anti-feedant effect and growth inhibition in comparison to untreated samples 6 days after infestation.

For data set [5], the system named is Aedes aegypti (Yellow Fever Mosquito). The data set is described as follows: Example B11: Activity against Aedes aegypti, dry deposit in tissue culture plates. It is filed as in vivo. The note with it: 200 ppm in ethanol; adult females; after 48 h and/or 24 h. The method, then: Test solutions, at an application rate of 200 ppm in ethanol, were applied to 12 well tissue culture plates. Once the deposits were dry, five, two to five day old adult female Aedes aegypti were added to each well, and sustained with a 10% sucrose solution in a cotton wool plug. Assessment of knockdown was made one hour after introduction, and mortality was assessed at 24 and 48 hours after introduction.

Data set [6] relates to Myzus persicae (Green Peach Aphid). In words: Example B5: Activity against Myzus persicae, sprayed sunflower leaf discs. It is filed as in vivo. The settings on record: foliar, 144 h, application rate 200 ppm, mixed-age aphids on sunflower leaf discs, 6 days after infestation. On the procedure:
Sunflower leaf discs were placed on agar in a 24-well microtiter plate and sprayed with aqueous test solutions prepared from 10′000 ppm DMSO stock solutions. After drying, the leaf discs were infested with an aphid population of mixed ages. The samples were assessed for mortality 6 days after infestation.

For data set [7] the test system is unchanged. In words: Example B6: Activity against Myzus persicae, systemic via roots of pea seedlings. It is filed as in vivo. The settings on record: 144 h, test rate 24 ppm, pea seedling roots in test solution, 6 days. On the procedure: Roots of pea seedlings infested with an aphid population of mixed ages were placed directly in the aqueous test solutions prepared from 10′000 DMSO stock solutions. The samples were assessed for mortality 6 days after placing seedlings in test solutions.

Data set [8] relates to Plutella xylostella (Diamond Back Moth). In words: Example B3: Activity against Plutella xylostella, artificial diet, L2 larvae. It is filed as in vivo. The note with it: 120 h, application rate 200 ppm, L2 larvae on artificial diet, 5 days after infestation, read-out: effect in at least one of the two categories (mortality or growth inhibition). The method, then: 24-well microtiter plates with artificial diet were treated with aqueous test solutions prepared from 10′000 ppm DMSO stock solutions by pipetting. After drying, the plates were infested with L2 larvae (10 to 15 per well). The samples were assessed for mortality and growth inhibition in comparison to untreated samples 5 days after infestation.

Data set [9] deals with Frankliniella occidentalis (Western Flower Thrips). In words: Example B8: Activity against Frankliniella occidentalis, sprayed sunflower leaf discs. It counts as in vivo. The settings on record: foliar, 168 h, application rate 200 ppm, mixed ages on sunflower leaf discs, 7 days after infestation. On the procedure:
Sunflower leaf discs were placed on agar in 24-well microtiter plates and sprayed with aqueous test solutions prepared from […] stock solutions. After drying the leaf discs were infested with a Frankliniella population of mixed ages. The samples were assessed for mortality 7 days after infestation.

Data set [10] relates to Euschistus heros (Neotropical Brown Stink Bug). The data set is described as follows: Example B9: Activity against Euschistus heros, sprayed soybean leaf. It is filed as in vivo. The settings on record: 120 h, application rate 200 ppm, N2 nymphs on soybean leaf, 5 days after infestation, read-out: effect in at least one of the two categories (mortality or growth inhibition). On the procedure: Soybean leaf on agar in 24-well microtiter plates were sprayed with aqueous test solutions prepared from 10′000 ppm DMSO stock solutions. After drying the leaf were infested with N2 nymphs. The samples were assessed for mortality and growth inhibition in comparison to untreated samples 5 days after infestation.

Data set [11] deals with Tetranychus urticae (Two-Spotted Spider Mite). The data set is described as follows: Example B10: Activity against Tetranychus urticae, sprayed bean leaf discs. It counts as in vivo. The note with it: foliar, 192 h. The method, then:
Bean leaf discs on agar in 24-well microtiter plates were sprayed with aqueous test solutions prepared from 10′000 ppm DMSO stock solutions. After drying the leaf discs were infested with a mite population of mixed ages. The samples were assessed for mortality on mixed population (mobile stages) 8 days after infestation.

What is called mortality is the percentage killed. Low values mean a weak lethal effect, high ones a strong lethal effect. In the case of `CCS(=O)(=O)c1cc2c(cc1-c1nc3cc(C(F)(F)F)cnc3n1C)n(C)c(=O)n2C` [Compound P3, 5-ethylsulfonyl-1,3-dimethyl-6-[3-methyl-6-(trifluoromethyl)imidazo[4,5-b]pyridin-2-yl]benzimidazol-2-one], in [1], the percent control (mortality, anti-feedant effect or growth inhibition) at 200 ppm was at least 80%. Besides, the mortality at 200 ppm in data set [2], in [6] and in data set [9] was at least 80% throughout. The percent effect (mortality or growth inhibition) at 200 ppm in data set [3], in data set [8] and in data set [10] was at least 80% in each case. Moreover, in data set [4], the percent effect (mortality, anti-feeding or growth inhibition) at 12.5 ppm is at least 80%. The “control of Aedes aegypti” value in [5] is “at least 80%”. The molecule also displayed a mortality at 24 ppm in data set [7] of at least 80%.

For `CCn1c(=O)n(C)c2cc(S(=O)(=O)CC)c(-c3nc4cc(C(F)(F)F)cnc4n3C)cc21` [Compound P6, 1-ethyl-5-ethylsulfonyl-3-methyl-6-[3-methyl-6-(trifluoromethyl)imidazo[4,5-b]pyridin-2-yl]benzimidazol-2-one], in data set [1], the percent control (mortality, anti-feedant effect or growth inhibition) at 200 ppm is at least 80%. The mortality at 200 ppm in data set [2], in [6] and in [11] was at least 80% throughout. The percent effect (mortality or growth inhibition) at 200 ppm in data set [3], in data set [8] and in data set [10] was at least 80% each time. Also, in [7], the mortality at 24 ppm was at least 80%.

Broadly, the melting point is the temperature of the solid-liquid transition. As for `CCSc1cc2c(cc1-c1nc3cc(C(F)(F)F)ccc3o1)n(C)c(=O)n2C`, the melting point lay within 205 to 207 °C.

In the case of `CCn1c(=O)n(C)c2cc(-c3nc4cc(C(F)(F)F)cnc4n3C)c(S(=O)(=O)CC)cc21` [Compound P5, 1-ethyl-6-ethylsulfonyl-3-methyl-5-[3-methyl-6-(trifluoromethyl)imidazo[4,5-b]pyridin-2-yl]benzimidazol-2-one], the percent control (mortality, anti-feedant effect or growth inhibition) at 200 ppm in [1] was at least 80%. Moreover, the mortality at 200 ppm in data set [2], in data set [6] and in data set [9] was at least 80% each time. The percent effect (mortality or growth inhibition) at 200 ppm in data set [3], in data set [8] and in [10] was at least 80% each time. Moreover, the percent effect (mortality, anti-feeding or growth inhibition) at 12.5 ppm in data set [4] is at least 80%. The same molecule showed a mortality at 24 ppm in [7] of at least 80%.
